ChEMBL document CHEMBL3286227, “Guanidinium-based derivatives: searching for new kinase inhibitors” (Eur J Med Chem, 2014)

Key:
Assay type in all cases: functional
HL-60 [1] = assay: Cell cycle arrest in human HL60 cells assessed as accumulation at Gn phase at 1 uM after 48 hrs by propidium iodide staining-based flow cytometry (reference value: 2.49 +/- 0.4%)
HL-60 [2] = assay: Cell cycle arrest in human HL60 cells assessed as accumulation at S phase at 10 uM after 72 hrs by propidium iodide staining-based flow cytometry (reference value: 16.4 +/- 0.8%)
HL-60 [3] = assay: Cell cycle arrest in human HL60 cells assessed as accumulation at Gn phase at 50 uM after 72 hrs by propidium iodide staining-based flow cytometry (reference value: 2.49 +/- 0.3%)
HL-60 [4] = assay: Cell cycle arrest in human HL60 cells assessed as accumulation at G0/G1 phase at 10 uM after 48 hrs by propidium iodide staining-based flow cytometry (reference value: 57.0 +/- 1.0%)
HL-60 [5] = assay: Cell cycle arrest in human HL60 cells assessed as accumulation at G0/G1 phase at 50 uM after 48 hrs by propidium iodide staining-based flow cytometry (reference value: 57.0 +/- 1.0%)
HL-60 [6] = assay: Cell cycle arrest in human HL60 cells assessed as accumulation at G2/M phase at 10 uM after 48 hrs by propidium iodide staining-based flow cytometry (reference value: 18.4 +/- 1.3%)
HL-60 [7] = assay: Cell cycle arrest in human HL60 cells assessed as accumulation at G0/G1 phase at 10 uM after 72 hrs by propidium iodide staining-based flow cytometry (reference value: 65.7 +/- 0.1%)
HL-60 [8] = assay: Cell cycle arrest in human HL60 cells assessed as accumulation at pre-G1 phase at 10 uM after 48 hrs by propidium iodide staining-based flow cytometry (reference value: 0.17%)
HL-60 [9] = assay: Cell cycle arrest in human HL60 cells assessed as accumulation at G2/M phase at 1 uM after 48 hrs by propidium iodide staining-based flow cytometry (reference value: 18.4 +/- 1.3%)
HL-60 [10] = assay: Cell cycle arrest in human HL60 cells assessed as accumulation at S phase at 50 uM after 48 hrs by propidium iodide staining-based flow cytometry (reference value: 21.5 +/- 1.0%)
HL-60 [11] = assay: Cell cycle arrest in human HL60 cells assessed as accumulation at G2/M phase at 1 uM after 72 hrs by propidium iodide staining-based flow cytometry (reference value: 14.8 +/- 0.7%)
HL-60 [12] = assay: Cell cycle arrest in human HL60 cells assessed as accumulation at S phase at 25 uM after 48 hrs by propidium iodide staining-based flow cytometry (reference value: 21.5 +/- 1.0%)

Cl.N=C(N)Nc1ccc(Oc2cccc(NC(=N)Nc3ccc(Cl)c(C(F)(F)F)c3)c2)cc1
Activity (HL-60 [1]): 2.17% | Activity (HL-60 [2]): 14.1% | Activity (HL-60 [3]): 1.75% | Activity (HL-60 [4]): 68.9% | Activity (HL-60 [5]): 44.6% | Activity (HL-60 [6]): 14.6% | Activity (HL-60 [7]): 61.3% | Activity (HL-60 [8]): 0.32% | Activity (HL-60 [9]): 20.4% | Activity (HL-60 [10]): 15.7% | Activity (HL-60 [11]): 16.7% | Activity (HL-60 [12]): 7.15%
